Experimental data published in PubChem BioAssay (NCI).
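Growth conditions: 96-well plates. Treatment: test compound, 48 hours, 5 concentrations. Analysis: linear interpolation between bracketing concentrations; unreached endpoints set to highest concentration. TGI: total growth inhibition.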

Assays:
Assay in all cases: NCI tumour cell line growth inhibition, 48 h
[1] = system: 786-0 renal
[2] = system: A498 renal
[3] = system: A549 NSCLC
[4] = system: CAKI-1 renal
[5] = system: CCRF-CEM leukemia
[6] = system: COLO 205 colon
[7] = system: DLD-1 colon
[8] = system: DMS 114 small cell lung
[9] = system: DMS 273 small cell lung
[10] = system: EKVX NSCLC
[11] = system: HCC-2998 colon
[12] = system: HCT-15 colon
[13] = system: HL-60(TB) leukemia
[14] = system: HOP-18 NSCLC
[15] = system: HOP-62 NSCLC
[16] = system: HOP-92 NSCLC
[17] = system: HT29 colon
[18] = system: IGROV1 ovarian
[19] = system: K-562 leukemia
[20] = system: KM12 colon
[21] = system: KM20L2 colon
[22] = system: LOX IMVI melanoma
[23] = system: M19-MEL melanoma
[24] = system: MALME-3M melanoma
[25] = system: MOLT-4 leukemia
[26] = system: NCI-H23 lung
[27] = system: NCI-H460 lung
[28] = system: NCI-H522 lung
[29] = system: OVCAR-3 ovarian
[30] = system: OVCAR-5 ovarian
[31] = system: OVCAR-8 ovarian
[32] = system: RPMI-8226 leukemia
[33] = system: RXF 393 renal
[34] = system: SF-268 CNS
[35] = system: SF-295 CNS
[36] = system: SF-539 CNS
[37] = system: SK-MEL-2 melanoma
[38] = system: SK-MEL-28 melanoma
[39] = system: SK-MEL-5 melanoma
[40] = system: SK-OV-3 ovarian
[41] = system: SN12C renal
[42] = system: SNB-19 CNS
[43] = system: SNB-75 CNS
[44] = system: SNB-78 CNS
[45] = system: SW-620 colon
[46] = system: TK-10 renal
[47] = system: U251 CNS
[48] = system: UACC-257 melanoma
[49] = system: UACC-62 melanoma
[50] = system: UO-31 renal

Measured: TGI

COc1ccc(/C=C/C(=O)c2sc(N)nc2C)cc1
> 100 µM: all assays above
